Laboratory results published in ChEMBL document CHEMBL1143427, “Interactions of ceftobiprole with beta-lactamases from molecular classes A to D” (Antimicrob Agents Chemother, 2007).

Legend:
[1] = target: Beta-lactamase (Pseudomonas aeruginosa (strain ATCC 15692 / PAO1 / 1C / PRS 101 / LMG12228)) (UniProt P24735); assay: Ratio of Kcat to Km of Pseudomonas aeruginosa AmpC assessed as drug hydrolysis by spectrophotometry relative to cephaloridine; parameters: scale not given: the % may be the effect or the level left
Chain of Beta-lactamase (Pseudomonas aeruginosa (strain ATCC 15692 / PAO1 / 1C / PRS 101 / LMG12228)) (P24735 27-397 limits assumed): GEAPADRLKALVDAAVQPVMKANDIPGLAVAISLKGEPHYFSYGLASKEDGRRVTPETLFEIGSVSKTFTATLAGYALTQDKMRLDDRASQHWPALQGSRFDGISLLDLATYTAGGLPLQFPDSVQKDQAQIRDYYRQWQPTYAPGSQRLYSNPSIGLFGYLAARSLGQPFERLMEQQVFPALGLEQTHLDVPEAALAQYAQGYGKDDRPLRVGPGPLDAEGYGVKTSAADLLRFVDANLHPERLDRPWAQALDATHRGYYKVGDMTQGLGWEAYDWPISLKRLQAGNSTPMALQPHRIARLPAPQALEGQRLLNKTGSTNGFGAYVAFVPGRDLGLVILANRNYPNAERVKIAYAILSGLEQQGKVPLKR

[2] = target: T1, Beta-lactamase SHV-1 (Klebsiella pneumoniae) (UniProt P0AD64); assay: Ratio of Kcat to Km of Klebsiella pneumoniae SHV1 assessed as drug hydrolysis by spectrophotometry relative to cephaloridine; parameters: scale not given: the % may be the effect or the level left
T1 sequence (whole entry): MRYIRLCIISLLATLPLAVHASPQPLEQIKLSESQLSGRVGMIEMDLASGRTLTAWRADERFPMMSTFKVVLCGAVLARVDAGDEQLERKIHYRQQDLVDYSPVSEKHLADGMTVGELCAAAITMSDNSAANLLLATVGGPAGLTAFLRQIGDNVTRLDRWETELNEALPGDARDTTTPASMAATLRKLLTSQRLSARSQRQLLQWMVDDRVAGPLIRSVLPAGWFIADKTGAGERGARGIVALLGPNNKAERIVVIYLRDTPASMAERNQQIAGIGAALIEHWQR

[3] = target: Beta-lactamase (Serratia marcescens) (UniProt P18539); assay: Activity of Serratia marcescens AmpC assessed as drug hydrolysis by spectrophotometry relative to cephaloridine; parameters: scale not given: the % may be the effect or the level left
Chain of Beta-lactamase (Serratia marcescens) (P18539 whole entry): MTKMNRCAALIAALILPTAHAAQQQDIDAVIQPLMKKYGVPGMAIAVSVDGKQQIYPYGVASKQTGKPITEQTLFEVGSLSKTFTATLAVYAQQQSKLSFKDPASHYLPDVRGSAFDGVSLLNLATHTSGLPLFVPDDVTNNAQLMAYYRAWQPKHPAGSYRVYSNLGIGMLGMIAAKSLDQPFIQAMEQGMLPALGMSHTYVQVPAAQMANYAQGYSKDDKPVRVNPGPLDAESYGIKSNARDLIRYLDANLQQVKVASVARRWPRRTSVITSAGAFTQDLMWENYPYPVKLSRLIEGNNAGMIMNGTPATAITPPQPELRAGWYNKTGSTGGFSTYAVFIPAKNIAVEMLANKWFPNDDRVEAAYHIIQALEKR

[4] = target: T1, Beta-lactamase SHV-1 (Klebsiella pneumoniae); assay: Activity of Klebsiella pneumoniae SHV1 assessed as drug hydrolysis by spectrophotometry relative to cephaloridine; parameters: scale not given: the % may be the effect or the level left
Klebsiella pneumoniae [5] = assay: Ratio of Kcat to Km of Klebsiella pneumoniae TEM26 assessed as drug hydrolysis by spectrophotometry
[6] = target: T2, Carbapenem-hydrolyzing beta-lactamase SME-3 (Serratia marcescens) (UniProt Q6PRG8); assay: Activity of Serratia marcescens SME3 assessed as drug hydrolysis by spectrophotometry relative to cephaloridine; parameters: scale not given: the % may be the effect or the level left
T2 sequence (whole entry): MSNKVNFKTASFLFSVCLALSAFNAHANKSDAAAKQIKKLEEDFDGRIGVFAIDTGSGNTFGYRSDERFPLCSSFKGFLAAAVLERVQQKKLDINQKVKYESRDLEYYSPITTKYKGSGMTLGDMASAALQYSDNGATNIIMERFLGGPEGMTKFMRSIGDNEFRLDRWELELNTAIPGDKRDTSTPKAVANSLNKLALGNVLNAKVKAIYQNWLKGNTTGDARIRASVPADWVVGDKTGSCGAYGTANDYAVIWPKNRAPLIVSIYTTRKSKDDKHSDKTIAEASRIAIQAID

[7] = target: Beta-lactamase TEM (Escherichia coli) (UniProt P62593); assay: Ratio of Kcat to Km of Escherichia coli TEM1 assessed as drug hydrolysis by spectrophotometry relative to cephaloridine; parameters: scale not given: the % may be the effect or the level left
Chain of Beta-lactamase TEM (Escherichia coli) (P62593 whole entry): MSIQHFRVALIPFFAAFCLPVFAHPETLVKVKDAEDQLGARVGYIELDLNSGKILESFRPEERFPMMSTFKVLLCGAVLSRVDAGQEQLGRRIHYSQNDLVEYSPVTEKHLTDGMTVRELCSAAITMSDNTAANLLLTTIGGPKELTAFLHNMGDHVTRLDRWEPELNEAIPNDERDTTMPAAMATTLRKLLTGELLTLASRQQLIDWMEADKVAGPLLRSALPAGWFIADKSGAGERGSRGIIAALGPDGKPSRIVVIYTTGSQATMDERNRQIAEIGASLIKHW

[8] = target: Beta-lactamase (Pseudomonas aeruginosa (strain ATCC 15692 / PAO1 / 1C / PRS 101 / LMG12228)) (UniProt P24735); assay: Ratio of Kcat to Km of Pseudomonas aeruginosa 18SH AmpC assessed as drug hydrolysis by spectrophotometry relative to cephaloridine; parameters: scale not given: the % may be the effect or the level left
[9] = target: Beta-lactamase (Morganella morganii) (UniProt P94958); assay: Ratio of Kcat to Km of Morganella morganii AmpC assessed as drug hydrolysis by spectrophotometry relative to cephaloridine; parameters: scale not given: the % may be the effect or the level left
[10] = target: T2, Carbapenem-hydrolyzing beta-lactamase SME-3 (Serratia marcescens); assay: Ratio of Kcat to Km of Serratia marcescens SME3 assessed as drug hydrolysis by spectrophotometry relative to cephaloridine; parameters: scale not given: the % may be the effect or the level left
[11] = target: Beta-lactamase TEM (Escherichia coli) (UniProt P62593); assay: Activity of Escherichia coli TEM1 assessed as drug hydrolysis by spectrophotometry relative to cephaloridine; parameters: scale not given: the % may be the effect or the level left
[12] = target: Beta-lactamase (Morganella morganii) (UniProt P94958); assay: Activity of Morganella morganii AmpC assessed as drug hydrolysis by spectrophotometry relative to cephaloridine; parameters: scale not given: the % may be the effect or the level left
[13] = target: Beta-lactamase (Pseudomonas aeruginosa (strain ATCC 15692 / PAO1 / 1C / PRS 101 / LMG12228)) (UniProt P24735); assay: Ratio of Kcat to Km of Pseudomonas aeruginosa MK-1184 AmpC assessed as drug hydrolysis by spectrophotometry relative to cephaloridine; parameters: scale not given: the % may be the effect or the level left
[14] = target: Beta-lactamase (Pseudomonas aeruginosa (strain ATCC 15692 / PAO1 / 1C / PRS 101 / LMG12228)) (UniProt P24735); assay: Activity of Pseudomonas aeruginosa 4352 AmpC assessed as drug hydrolysis by spectrophotometry relative to cephaloridine; parameters: scale not given: the % may be the effect or the level left
[15] = target: Metallo beta-lactamase (Pseudomonas aeruginosa) (UniProt Q6TUJ4); assay: Ratio of Kcat to Km of Pseudomonas aeruginosa IMP1 assessed as drug hydrolysis by spectrophotometry relative to cephaloridine; parameters: scale not given: the % may be the effect or the level left
Chain of Metallo beta-lactamase (Pseudomonas aeruginosa) (Q6TUJ4 as listed by the source): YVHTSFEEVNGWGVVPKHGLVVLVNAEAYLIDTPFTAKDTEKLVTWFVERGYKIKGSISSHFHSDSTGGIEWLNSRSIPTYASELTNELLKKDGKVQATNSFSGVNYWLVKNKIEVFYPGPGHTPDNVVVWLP

Klebsiella pneumoniae [16] = assay: Activity of Klebsiella pneumoniae TEM26 assessed as drug hydrolysis by spectrophotometry
[17] = target: T3, Beta-lactamase (Providencia stuartii) (UniProt O69773); assay: Activity of Providencia stuartii AmpC assessed as drug hydrolysis by spectrophotometry relative to cephaloridine; parameters: scale not given: the % may be the effect or the level left
T3 sequence (whole entry): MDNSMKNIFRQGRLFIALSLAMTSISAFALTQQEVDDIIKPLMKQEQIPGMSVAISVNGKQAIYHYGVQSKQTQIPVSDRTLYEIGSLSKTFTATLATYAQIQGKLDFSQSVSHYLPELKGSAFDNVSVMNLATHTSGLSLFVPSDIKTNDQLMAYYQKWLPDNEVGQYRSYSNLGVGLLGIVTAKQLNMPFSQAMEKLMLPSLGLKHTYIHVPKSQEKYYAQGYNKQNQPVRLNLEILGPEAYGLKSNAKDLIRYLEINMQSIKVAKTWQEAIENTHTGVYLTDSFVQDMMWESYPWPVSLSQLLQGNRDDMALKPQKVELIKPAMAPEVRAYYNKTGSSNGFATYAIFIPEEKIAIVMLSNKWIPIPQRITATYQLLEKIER

[18] = target: Beta-lactamase (Staphylococcus aureus) (UniProt P00807); assay: Activity of Staphylococcus aureus betalactamase PC1 assessed as drug hydrolysis by spectrophotometry relative to cephaloridine; parameters: scale not given: the % may be the effect or the level left
Chain of Beta-lactamase (Staphylococcus aureus) (P00807 whole entry): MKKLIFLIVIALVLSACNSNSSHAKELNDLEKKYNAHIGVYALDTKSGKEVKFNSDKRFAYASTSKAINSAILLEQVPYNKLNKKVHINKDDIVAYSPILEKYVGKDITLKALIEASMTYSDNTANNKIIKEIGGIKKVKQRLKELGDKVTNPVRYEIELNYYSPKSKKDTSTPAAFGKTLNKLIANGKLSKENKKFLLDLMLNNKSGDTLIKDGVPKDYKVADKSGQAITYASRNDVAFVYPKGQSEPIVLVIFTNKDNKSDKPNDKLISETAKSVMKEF

[19] = target: Beta-lactamase (Staphylococcus aureus) (UniProt P00807); assay: Ratio of Kcat to Km of Staphylococcus aureus betalactamase PC1 assessed as drug hydrolysis by spectrophotometry relative to cephaloridine; parameters: scale not given: the % may be the effect or the level left
[20] = target: Beta-lactamase (Pseudomonas aeruginosa (strain ATCC 15692 / PAO1 / 1C / PRS 101 / LMG12228)) (UniProt P24735); assay: Activity of Pseudomonas aeruginosa MK-1184 AmpC assessed as drug hydrolysis by spectrophotometry relative to cephaloridine; parameters: scale not given: the % may be the effect or the level left
[21] = target: T3, Beta-lactamase (Providencia stuartii); assay: Ratio of Kcat to Km of Providencia stuartii AmpC assessed as drug hydrolysis by spectrophotometry relative to cephaloridine; parameters: scale not given: the % may be the effect or the level left
[22] = target: T4, Beta-lactamase (Klebsiella oxytoca) (UniProt Q8RT60); assay: Activity of Klebsiella oxytoca beta-lactamase K1 assessed as drug hydrolysis by spectrophotometry relative to cephaloridine; parameters: scale not given: the % may be the effect or the level left
T4 sequence (whole entry): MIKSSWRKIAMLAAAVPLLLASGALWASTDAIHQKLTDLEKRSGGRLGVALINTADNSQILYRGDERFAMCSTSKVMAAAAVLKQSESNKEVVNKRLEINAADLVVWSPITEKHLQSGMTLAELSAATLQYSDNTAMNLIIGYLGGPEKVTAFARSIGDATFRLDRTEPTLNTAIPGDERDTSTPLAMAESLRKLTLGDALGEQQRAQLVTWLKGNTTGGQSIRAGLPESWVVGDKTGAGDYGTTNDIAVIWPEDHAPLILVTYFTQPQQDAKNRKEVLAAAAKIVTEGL

Klebsiella pneumoniae [23] = assay: Activity of Klebsiella pneumoniae TEM26 assessed as drug hydrolysis by spectrophotometry relative to cephaloridine; parameters: scale not given: the % may be the effect or the level left
[24] = target: Beta-lactamase VIM-2 (Pseudomonas aeruginosa) (UniProt Q9K2N0); assay: Activity of Pseudomonas aeruginosa VIM2 assessed as drug hydrolysis by spectrophotometry relative to cephaloridine; parameters: scale not given: the % may be the effect or the level left
[25] = target: Beta-lactamase CTX-M (Escherichia coli) (UniProt Q9EXV5); assay: Activity of Escherichia coli CTX-M-15 assessed as drug hydrolysis by spectrophotometry relative to cephaloridine; parameters: scale not given: the % may be the effect or the level left
[26] = target: Beta-lactamase (Pseudomonas aeruginosa (strain ATCC 15692 / PAO1 / 1C / PRS 101 / LMG12228)) (UniProt P24735); assay: Ratio of Kcat to Km of Pseudomonas aeruginosa 4352 AmpC assessed as drug hydrolysis by spectrophotometry relative to cephaloridine; parameters: scale not given: the % may be the effect or the level left
[27] = target: Beta-lactamase (Pseudomonas aeruginosa (strain ATCC 15692 / PAO1 / 1C / PRS 101 / LMG12228)) (UniProt P24735); assay: Activity of Pseudomonas aeruginosa 18SH AmpC assessed as drug hydrolysis by spectrophotometry relative to cephaloridine; parameters: scale not given: the % may be the effect or the level left
[28] = target: Beta-lactamase VIM-2 (Pseudomonas aeruginosa) (UniProt Q9K2N0); assay: Ratio of Kcat to Km of Pseudomonas aeruginosa VIM2 assessed as drug hydrolysis by spectrophotometry relative to cephaloridine; parameters: scale not given: the % may be the effect or the level left
Klebsiella pneumoniae [29] = assay: Ratio of Kcat to Km of Klebsiella pneumoniae TEM26 assessed as drug hydrolysis by spectrophotometry relative to cephaloridine; parameters: scale not given: the % may be the effect or the level left
[30] = target: Beta-lactamase (Pseudomonas aeruginosa (strain ATCC 15692 / PAO1 / 1C / PRS 101 / LMG12228)) (UniProt P24735); assay: Activity of Pseudomonas aeruginosa AmpC assessed as drug hydrolysis by spectrophotometry relative to cephaloridine; parameters: scale not given: the % may be the effect or the level left
[31] = target: T4, Beta-lactamase (Klebsiella oxytoca); assay: Ratio of Kcat to Km of Klebsiella oxytoca beta-lactamase K1 assessed as drug hydrolysis by spectrophotometry relative to cephaloridine; parameters: scale not given: the % may be the effect or the level left
[32] = target: Beta-lactamase (Serratia marcescens) (UniProt P18539); assay: Ratio of Kcat to Km of Serratia marcescens AmpC assessed as drug hydrolysis by spectrophotometry relative to cephaloridine; parameters: scale not given: the % may be the effect or the level left
[33] = target: Beta-lactamase CTX-M (Escherichia coli) (UniProt Q9EXV5); assay: Ratio of Kcat to Km of Escherichia coli CTX-M-15 assessed as drug hydrolysis by spectrophotometry relative to cephaloridine; parameters: scale not given: the % may be the effect or the level left

SMILES | Activity [1] [%] | Activity [2] [%] | Activity [3] [%] | Activity [4] [%] | kcat/Km (Klebsiella pneumoniae [5]) [M⁻¹ s⁻¹] | Activity [6] [%] | Activity [7] [%] | Activity [8] [%] | Activity [9] [%] | Activity [10] [%] | Activity [11] [%] | Activity [12] [%] | Activity [13] [%] | Activity [14] [%] | Activity [15] [%] | Km (Klebsiella pneumoniae [16]) [µM] | kcat (Klebsiella pneumoniae [16]) [s⁻¹] | Activity [17] [%] | Activity [18] [%] | Activity [19] [%] | other results
Nc1nc(/C(=N/O)C(=O)N[C@@H]2C(=O)N3C(C(=O)O)=C(/C=C4\CCN([C@@H]5CCNC5)C4=O)CS[C@H]23)ns1 | 9900 | 7.4 | < 0.14 | 6 | 110000 | 0.49 | 1.6 | 0.71 | < 0.071 | 0.73 | 0.9 | < 0.0064 | 1 | < 0.024 | 990 | 63 | 6.9 | 0.03 | 17 | 24 | Activity [20]: 2%; Activity [21]: 0.11%; Activity [22]: 33%; Activity (Klebsiella pneumoniae [23]): 19%; Activity [24]: 13%; Activity [25]: 140%; Activity [26]: 0.14%; Activity [27]: 0.028%; Activity [28]: 380%; Activity (Klebsiella pneumoniae [29]): 20%; Activity [30]: 1400%; Activity [31]: 100%; Activity [32]: < 0.27%; Activity [33]: 290%
CO/N=C(\C(=O)N[C@@H]1C(=O)N2C(C(=O)[O-])=C(C[N+]3(C)CCCC3)CS[C@H]12)c1csc(N)n1 | 1.6 | 0.81 | < 0.028 | 0.42 | 310000 | 0.13 | 0.38 | 0.5 | < 0.018 | 0.18 | 0.45 | < 0.047 | 0.78 | < 0.012 | 200 | 65 | 20 | 0.57 | 1.4 | 2.5 | Activity [20]: 1.5%; Activity [21]: 0.66%; Activity [22]: 8.5%; Activity (Klebsiella pneumoniae [23]): 54%; Activity [24]: 0.32%; Activity [25]: 24%; Activity [26]: 0.011%; Activity [27]: < 0.1%; Activity [28]: 4.1%; Activity (Klebsiella pneumoniae [29]): 55%; Activity [30]: 19%; Activity [31]: 0.84%; Activity [32]: < 0.022%; Activity [33]: 5.1%
